Several values for one entry are separate records, joined by “and”; a condition that tells them apart may be missing. Equal values may be shown once.

Test [1] addresses T1, β-galactosidase (Escherichia coli, UniProt P00722). The test can be described thus: Droplet microfluidic IC50 measurement, Taylor dispersion dilution (Example 1c), RBG substrate. In kind it is biochemical. The arrangement: purchased Sigma-Aldrich Co. The note with it: Taylor dispersion pulse, 30 s droplet incubation, 4-parameter log-logistic fit; read-out: IC50 of PETG in the enzyme/substrate/inhibitor system. The text has this:
(§1) In the examples, the model systems comprised an enzyme, a substrate, and an inhibitor for IC50 measurements and an enzyme and substrate alone for KM measurements. In all cases the enzyme was β-galactosidase (Sigma-Aldrich Co.), the substrate was resorufin β-D-galactopyranoside (RBG; Invitrogen Corporation), and the inhibitor was phenylethyl β-D-thiogalactopyranoside (PETG; Invitrogen Corporation).
A microfluidic emulsion of 90 pl aqueous microdroplets was generated by injecting the microfluidic device (FIG. 2) with an oil phase and three aqueous phases. The oil phase consisted of 1% (w/w) EA surfactant dissolved in HFE-7500 flowing at 680 μl/hr. […]
The autosampler was used to introduce a single 1 μl pulse of 120 μM PETG (the inhibitor) to the PBS flowing to the device through the silane-treated capillary. The inclusion of 40 μM of the fluorophore sodium fluorescein with the inhibitor allowed the concentration of PETG to be inferred downstream from the degree of fluorescence observed in the 500-520 nm channel. […]
The microdroplets in the initial climb in inhibitor concentration (the leading front of the inhibitor pulse) were plotted in an XY graph with initial reaction rate (inferred from resorufin fluorescence after 30 seconds of droplet incubation) against inhibitor concentration (assumed to be proportional to sodium fluorescein fluorescence). […]

Test [2] deals with T1, β-galactosidase. The test can be described thus: Droplet microfluidic IC50 measurement, on-chip serial dilution network with scanning chamber (Example 1d), RBG substrate. Type of test: biochemical. Also noted: purchased Sigma-Aldrich Co. The note with it: 75 s droplet incubation, 4-parameter log-logistic fit, read-out: IC50 of PETG in the enzyme/substrate/inhibitor system. How it is done:
as §1
An aqueous phase of 120 μM PETG (the inhibitor) and 100 μM sodium fluorescein in PBS were injected into the ‘compound’ input of the micro fluidic device (FIG. 4) at a flow rate of 111 μl/hr. A second aqueous phase, PBS, was injected into the ‘diluent’ input at a flow rate of 389 μl/hr. […]
A series of microdroplets were created containing PETG (and sodium fluorescein) at different concentrations: from zero to 30 μM (25 μM sodium fluorescein) and then from 30 μM to zero. […] The amounts of fluorescent resorufin (liberated by β-galactosidase activity) and sodium fluorescein were measured for each droplet by monitoring fluorescence intensity in the 590-625 and 500-520 nm channels, respectively.
About 10^5 microdroplets were plotted in an XY graph with initial reaction rate (inferred from resorufin fluorescence after 75 seconds of droplet incubation) against inhibitor concentration (assumed to be proportional to sodium fluorescein fluorescence). […]

T1 sequence (P00722 2-1024 limits assumed): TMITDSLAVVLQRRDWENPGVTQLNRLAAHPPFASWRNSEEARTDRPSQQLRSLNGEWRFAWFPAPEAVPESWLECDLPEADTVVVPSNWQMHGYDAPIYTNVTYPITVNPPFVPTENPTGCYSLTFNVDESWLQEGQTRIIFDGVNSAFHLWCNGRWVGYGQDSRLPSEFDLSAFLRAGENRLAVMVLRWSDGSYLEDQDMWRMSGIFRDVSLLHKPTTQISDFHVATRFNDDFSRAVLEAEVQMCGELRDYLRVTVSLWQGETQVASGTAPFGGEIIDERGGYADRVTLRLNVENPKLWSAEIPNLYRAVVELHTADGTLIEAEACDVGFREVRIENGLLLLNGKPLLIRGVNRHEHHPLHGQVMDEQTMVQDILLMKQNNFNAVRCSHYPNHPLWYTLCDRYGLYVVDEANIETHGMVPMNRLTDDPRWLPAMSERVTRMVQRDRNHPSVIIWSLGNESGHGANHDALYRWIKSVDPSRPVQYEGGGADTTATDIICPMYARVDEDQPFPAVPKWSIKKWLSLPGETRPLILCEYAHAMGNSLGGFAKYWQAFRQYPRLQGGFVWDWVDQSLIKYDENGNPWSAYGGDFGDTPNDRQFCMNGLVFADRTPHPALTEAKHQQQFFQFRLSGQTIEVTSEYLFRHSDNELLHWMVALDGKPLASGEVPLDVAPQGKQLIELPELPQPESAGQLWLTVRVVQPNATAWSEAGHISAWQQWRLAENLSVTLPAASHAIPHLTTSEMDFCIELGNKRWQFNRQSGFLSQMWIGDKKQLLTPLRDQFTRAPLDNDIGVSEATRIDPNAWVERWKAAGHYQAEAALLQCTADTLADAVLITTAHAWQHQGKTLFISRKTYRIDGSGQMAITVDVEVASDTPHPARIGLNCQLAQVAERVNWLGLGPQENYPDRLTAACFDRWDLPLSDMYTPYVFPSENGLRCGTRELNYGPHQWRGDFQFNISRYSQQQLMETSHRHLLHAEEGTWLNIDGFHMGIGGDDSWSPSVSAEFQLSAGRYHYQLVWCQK

With `OC[C@H]1O[C@@H](SCCc2ccccc2)[C@H](O)[C@@H](O)[C@H]1O` [PETG, phenylethyl β-D-thiogalactopyranoside], the IC50 was 3.04 µM on β-galactosidase [1]; 2.21 µM and 3.04 µM at β-galactosidase [2].

The values are drawn from patent publication US20130072404A1, “APPARATUS AND PROCESSES FOR GENERATING VARIABLE CONCENTRATION OF SOLUTES IN MICRODROPLETS” (UNIVERSITE DE STRASBOURG, priority 2009, published 2013).
